The values that follow come from ChEMBL document CHEMBL5131569, “SAGE-718: A First-in-Class N-Methyl-d-Aspartate Receptor Positive Allosteric Modulator for the Potential Treatment of Cognitive Impairment” (J Med Chem, 2022).

Series [1] in a line: Metabolic stability in dog liver microsomes assessed as intrinsic clearance at 10 uM preincubated for 5 mins followed by NADPH addition and measured upto 65 mins by LC-MS/MS analysis. It is filed as ADME, Canis lupus familiaris, Microsome. To be noted: time < 70 min, read-out: CLH. On the technique in general: Liver microsomes are vesicles of endoplasmic reticulum, rich in cytochrome P450 enzymes.

A short description of series [2]: Drug concentration in CD-1 mouse plasma at 3 mg/kg, ip administered for 90 mins. It is filed as ADME, organism-based.
The nature of series [3]: Clearance in Sprague-Dawley rat by LC-MS/MS analysis. The series is classed as ADME. To be noted: in vivo.
Series [4] addresses Sodium channel protein type 5 subunit alpha (Homo sapiens, UniProt Q14524). Description: Inhibition of NaV1.5 (unknown origin).
Another series concerns the target Cytochrome P450 2D6 (Homo sapiens, UniProt P10635). Description: Inhibition of CYP2D6 (unknown origin). It is filed as ADME.
Series [5] can be described thus: Oral bioavailability in Sprague-Dawley rat by LC-MS/MS analysis. It is filed as ADME, organism-based. To be noted: in vivo.
Series [6] relates to Mus musculus. Description: Reversal of DOI-induced hyperlocomotion in CD-1 mouse assessed as reduction in rearing at 5 mg/kg, ip administered 90 mins prior to DOI induction and measured upto 30 mins post DOI treatment (reference value: 59.8 +/- 8.6 Counts). It is filed as functional. To be noted: time <= 120 min, 2 h.
Series [7] is described as follows: Inhibition of Kv4.3/KChIP2.2 (unknown origin) by patch clamp method. Further details: species or system Homo sapiens. Background: In patch-clamp work, channel activity is measured electrically.
Series [8] relates to Mus musculus. The series is described as follows: Reversal of DOI-induced hyperlocomotion in CD-1 mouse assessed as reduction in distance travel at 5 mg/kg, ip administered 90 mins prior to DOI induction and measured upto 30 mins post DOI treatment (reference value: 7.8 +/- 0.8 meter). It is filed as functional. To be noted: time <= 120 min, 2 h.
Another series has as its target Cytochrome P450 3A4 (Homo sapiens, UniProt P08684). Description: Inhibition of CYP3A4 (unknown origin). The series is classed as ADME.
Series [9] is described as follows: Lipophilicity, logD of compound in MeOH at 20 uM by HPLC analysis. It is filed as physicochemical.
Series [10] is described as follows: Metabolic stability in human hepatocytes assessed as clearance at 10 uM measured upto 120 mins by LC-MS/MS analysis. It is filed as ADME, cell-based, Hepatocyte. To be noted: 2 h.
A further series has as its target T1, Cytochrome P450 2C8 (Homo sapiens, UniProt P10632).
T1 sequence (P10632 whole entry): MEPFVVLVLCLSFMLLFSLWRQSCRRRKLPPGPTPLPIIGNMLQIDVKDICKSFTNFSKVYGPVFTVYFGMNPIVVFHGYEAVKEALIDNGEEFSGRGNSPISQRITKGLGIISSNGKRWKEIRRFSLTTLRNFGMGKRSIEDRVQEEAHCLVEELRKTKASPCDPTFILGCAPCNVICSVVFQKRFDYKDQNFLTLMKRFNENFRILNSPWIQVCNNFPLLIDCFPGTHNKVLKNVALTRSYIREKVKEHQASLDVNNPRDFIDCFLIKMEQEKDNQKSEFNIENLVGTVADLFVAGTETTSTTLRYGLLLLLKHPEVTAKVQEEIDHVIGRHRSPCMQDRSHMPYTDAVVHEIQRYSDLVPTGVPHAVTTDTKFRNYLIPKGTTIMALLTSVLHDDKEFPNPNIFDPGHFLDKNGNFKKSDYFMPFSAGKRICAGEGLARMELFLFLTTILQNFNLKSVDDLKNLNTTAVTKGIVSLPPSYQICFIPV
Description: Inhibition of CYP2C8 (unknown origin). It is filed as ADME.

In series [11] the test system is Mus musculus. The series is described as follows: Reversal of DOI-induced hyperlocomotion in CD-1 mouse assessed as reduction in distance travel at 3 mg/kg, ip administered 90 mins prior to DOI induction and measured upto 30 mins post DOI treatment (reference value: 7.8 +/- 0.8 meter). The series is classed as functional. To be noted: time <= 120 min, 2 h.
Series [12] has as its target Ionotropic glutamate receptor NMDA 1/2D (Homo sapiens, UniProt O15399+Q05586). The series is described as follows: Positive allosteric modulation of recombinant human GluN1/GluN2D receptor stably expressed in HEK293 cells assessed as increase in glycine/L-glutamate-induced channel current at -70 mV holding potential by whole cell patch clamp method.
The nature of series [13]: Drug concentration in CD-1 mouse plasma at 5 mg/kg, ip administered for 90 mins. It is filed as ADME, organism-based.
Series [14] relates to Mus musculus. Description: Reversal of DOI-induced hyperlocomotion in CD-1 mouse assessed as reduction in rearing at 7.5 mg/kg, ip administered 90 mins prior to DOI induction and measured upto 30 mins post DOI treatment (reference value: 59.8 +/- 8.6 Counts). The series is classed as functional. To be noted: time <= 120 min, 2 h.
Another series is described as follows: in vivo. Conditions: CD-1, mouse, brain and plasma.
Series [15] is described as follows: Oral bioavailability in Beagle dog by LC-MS/MS analysis. The series is classed as ADME, organism-based, Canis lupus familiaris. Conditions: in vivo.
A short description of series [16]: Plasma protein binding in rat after 15 mins by equilibrium dialysis method. It is filed as ADME, cell-free. Conditions: read-out: PPB (converted). A general note: Equilibrium dialysis compares concentrations on both sides of a semipermeable membrane.
The target in series [17] is T2, Potassium/sodium hyperpolarization-activated cyclic nucleotide-gated channel 2 (Homo sapiens, UniProt Q9UL51).
T2 sequence (Q9UL51 whole entry): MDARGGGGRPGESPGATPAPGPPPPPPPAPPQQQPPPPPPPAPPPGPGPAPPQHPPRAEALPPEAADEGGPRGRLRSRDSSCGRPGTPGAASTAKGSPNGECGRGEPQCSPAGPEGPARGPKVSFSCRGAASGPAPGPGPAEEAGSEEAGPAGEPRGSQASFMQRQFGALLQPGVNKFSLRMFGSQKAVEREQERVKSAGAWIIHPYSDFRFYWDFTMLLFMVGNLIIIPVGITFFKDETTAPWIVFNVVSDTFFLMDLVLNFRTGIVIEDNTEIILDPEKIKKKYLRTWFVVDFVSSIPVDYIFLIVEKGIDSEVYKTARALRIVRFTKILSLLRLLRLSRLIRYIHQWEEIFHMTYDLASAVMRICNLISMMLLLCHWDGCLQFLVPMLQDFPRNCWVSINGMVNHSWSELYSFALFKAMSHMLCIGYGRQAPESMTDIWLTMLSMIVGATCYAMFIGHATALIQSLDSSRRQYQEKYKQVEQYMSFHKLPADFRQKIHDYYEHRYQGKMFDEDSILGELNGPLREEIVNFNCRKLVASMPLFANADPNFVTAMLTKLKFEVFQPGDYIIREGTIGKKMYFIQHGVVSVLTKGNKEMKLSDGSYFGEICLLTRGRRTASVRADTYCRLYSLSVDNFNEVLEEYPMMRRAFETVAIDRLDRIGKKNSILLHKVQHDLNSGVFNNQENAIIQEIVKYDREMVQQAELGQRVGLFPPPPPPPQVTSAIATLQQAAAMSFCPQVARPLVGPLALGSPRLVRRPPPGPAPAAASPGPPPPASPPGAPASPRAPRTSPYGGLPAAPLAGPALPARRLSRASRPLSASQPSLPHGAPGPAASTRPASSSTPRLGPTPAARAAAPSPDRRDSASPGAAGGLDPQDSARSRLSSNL
Description: Inhibition of HCN2 (unknown origin) by patch clamp method.

Series [18] is described as follows: Clearance in CD-1 mouse by LC-MS/MS analysis. It is filed as ADME. To be noted: in vivo.
Series [19] in a line: Metabolic stability in rat liver microsomes assessed as intrinsic clearance at 10 uM preincubated for 5 mins followed by NADPH addition and measured upto 65 mins by LC-MS/MS analysis. The series is classed as ADME, Microsome. To be noted: time < 70 min, read-out: CLH.
Series [20] in a line: Metabolic stability in monkey hepatocytes assessed as clearance at 10 uM measured upto 120 mins by LC-MS/MS analysis. It is filed as ADME, cell-based, Macaca mulatta, Hepatocyte. To be noted: rhesus monkey, 2 h.

Chain of Cytochrome P450 2D6 (P10635 whole entry): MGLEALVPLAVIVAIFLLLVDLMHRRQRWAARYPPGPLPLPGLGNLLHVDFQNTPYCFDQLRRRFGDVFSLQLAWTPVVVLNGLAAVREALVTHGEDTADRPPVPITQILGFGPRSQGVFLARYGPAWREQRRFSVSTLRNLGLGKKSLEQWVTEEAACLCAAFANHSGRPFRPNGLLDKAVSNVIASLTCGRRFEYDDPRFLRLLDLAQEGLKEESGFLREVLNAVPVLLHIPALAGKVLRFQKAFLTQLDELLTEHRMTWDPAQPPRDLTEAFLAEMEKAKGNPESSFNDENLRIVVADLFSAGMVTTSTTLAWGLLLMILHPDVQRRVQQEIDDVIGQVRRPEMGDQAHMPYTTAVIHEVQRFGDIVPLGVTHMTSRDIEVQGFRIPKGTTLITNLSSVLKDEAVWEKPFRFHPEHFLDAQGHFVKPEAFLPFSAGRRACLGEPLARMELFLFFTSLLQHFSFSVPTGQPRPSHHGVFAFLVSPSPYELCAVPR
Chain of Cytochrome P450 3A4 (P08684 whole entry): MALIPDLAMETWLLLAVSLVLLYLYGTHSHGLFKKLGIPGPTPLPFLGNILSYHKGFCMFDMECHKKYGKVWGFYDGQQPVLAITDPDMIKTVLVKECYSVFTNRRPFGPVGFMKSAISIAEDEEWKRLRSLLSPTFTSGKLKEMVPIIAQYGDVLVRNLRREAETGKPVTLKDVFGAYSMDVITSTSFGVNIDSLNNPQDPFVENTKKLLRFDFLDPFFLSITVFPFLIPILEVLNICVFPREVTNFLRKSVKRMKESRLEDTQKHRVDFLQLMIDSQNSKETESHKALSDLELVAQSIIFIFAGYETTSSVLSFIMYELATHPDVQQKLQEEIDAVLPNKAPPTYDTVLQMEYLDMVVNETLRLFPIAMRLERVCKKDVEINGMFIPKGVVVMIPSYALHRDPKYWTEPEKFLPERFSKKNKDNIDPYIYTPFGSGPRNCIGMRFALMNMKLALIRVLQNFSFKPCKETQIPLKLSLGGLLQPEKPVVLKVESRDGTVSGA
Chain of Ionotropic glutamate receptor NMDA 1/2D (O15399 whole entry, other chains not shown): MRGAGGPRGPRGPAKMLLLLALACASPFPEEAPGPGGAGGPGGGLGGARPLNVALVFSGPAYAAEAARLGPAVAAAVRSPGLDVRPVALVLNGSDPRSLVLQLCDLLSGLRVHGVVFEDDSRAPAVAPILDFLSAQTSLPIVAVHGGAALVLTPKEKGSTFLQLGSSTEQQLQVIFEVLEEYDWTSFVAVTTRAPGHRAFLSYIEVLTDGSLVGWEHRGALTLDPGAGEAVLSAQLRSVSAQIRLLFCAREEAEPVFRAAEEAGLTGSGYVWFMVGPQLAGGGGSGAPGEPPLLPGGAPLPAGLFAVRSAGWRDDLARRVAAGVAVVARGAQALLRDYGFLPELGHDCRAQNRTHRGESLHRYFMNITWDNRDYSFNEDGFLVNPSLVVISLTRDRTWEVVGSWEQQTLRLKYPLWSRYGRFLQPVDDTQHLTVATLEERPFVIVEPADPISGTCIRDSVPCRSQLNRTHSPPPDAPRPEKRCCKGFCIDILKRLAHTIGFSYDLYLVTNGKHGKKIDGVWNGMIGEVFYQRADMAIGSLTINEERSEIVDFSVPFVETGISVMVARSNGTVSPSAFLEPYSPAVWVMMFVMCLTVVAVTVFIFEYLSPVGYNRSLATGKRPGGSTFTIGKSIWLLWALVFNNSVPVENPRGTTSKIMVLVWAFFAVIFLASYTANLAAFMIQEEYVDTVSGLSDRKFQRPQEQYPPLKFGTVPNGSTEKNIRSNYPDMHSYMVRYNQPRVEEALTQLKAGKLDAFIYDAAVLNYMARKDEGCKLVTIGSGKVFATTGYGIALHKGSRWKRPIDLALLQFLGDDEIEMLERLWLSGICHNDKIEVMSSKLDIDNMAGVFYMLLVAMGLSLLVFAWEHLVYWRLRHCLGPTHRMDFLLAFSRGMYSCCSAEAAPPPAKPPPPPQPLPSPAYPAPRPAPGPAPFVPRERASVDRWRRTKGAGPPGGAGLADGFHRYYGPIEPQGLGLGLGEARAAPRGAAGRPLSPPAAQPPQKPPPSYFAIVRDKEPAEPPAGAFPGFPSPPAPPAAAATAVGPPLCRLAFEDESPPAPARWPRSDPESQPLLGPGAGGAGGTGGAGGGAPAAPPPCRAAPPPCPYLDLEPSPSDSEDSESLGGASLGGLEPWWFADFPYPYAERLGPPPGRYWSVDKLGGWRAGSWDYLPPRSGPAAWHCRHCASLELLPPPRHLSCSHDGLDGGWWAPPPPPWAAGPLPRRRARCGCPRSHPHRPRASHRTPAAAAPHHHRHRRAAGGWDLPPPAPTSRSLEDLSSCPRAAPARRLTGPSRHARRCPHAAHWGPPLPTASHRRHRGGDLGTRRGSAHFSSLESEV
Chain of Sodium channel protein type 5 subunit alpha (Q14524 whole entry): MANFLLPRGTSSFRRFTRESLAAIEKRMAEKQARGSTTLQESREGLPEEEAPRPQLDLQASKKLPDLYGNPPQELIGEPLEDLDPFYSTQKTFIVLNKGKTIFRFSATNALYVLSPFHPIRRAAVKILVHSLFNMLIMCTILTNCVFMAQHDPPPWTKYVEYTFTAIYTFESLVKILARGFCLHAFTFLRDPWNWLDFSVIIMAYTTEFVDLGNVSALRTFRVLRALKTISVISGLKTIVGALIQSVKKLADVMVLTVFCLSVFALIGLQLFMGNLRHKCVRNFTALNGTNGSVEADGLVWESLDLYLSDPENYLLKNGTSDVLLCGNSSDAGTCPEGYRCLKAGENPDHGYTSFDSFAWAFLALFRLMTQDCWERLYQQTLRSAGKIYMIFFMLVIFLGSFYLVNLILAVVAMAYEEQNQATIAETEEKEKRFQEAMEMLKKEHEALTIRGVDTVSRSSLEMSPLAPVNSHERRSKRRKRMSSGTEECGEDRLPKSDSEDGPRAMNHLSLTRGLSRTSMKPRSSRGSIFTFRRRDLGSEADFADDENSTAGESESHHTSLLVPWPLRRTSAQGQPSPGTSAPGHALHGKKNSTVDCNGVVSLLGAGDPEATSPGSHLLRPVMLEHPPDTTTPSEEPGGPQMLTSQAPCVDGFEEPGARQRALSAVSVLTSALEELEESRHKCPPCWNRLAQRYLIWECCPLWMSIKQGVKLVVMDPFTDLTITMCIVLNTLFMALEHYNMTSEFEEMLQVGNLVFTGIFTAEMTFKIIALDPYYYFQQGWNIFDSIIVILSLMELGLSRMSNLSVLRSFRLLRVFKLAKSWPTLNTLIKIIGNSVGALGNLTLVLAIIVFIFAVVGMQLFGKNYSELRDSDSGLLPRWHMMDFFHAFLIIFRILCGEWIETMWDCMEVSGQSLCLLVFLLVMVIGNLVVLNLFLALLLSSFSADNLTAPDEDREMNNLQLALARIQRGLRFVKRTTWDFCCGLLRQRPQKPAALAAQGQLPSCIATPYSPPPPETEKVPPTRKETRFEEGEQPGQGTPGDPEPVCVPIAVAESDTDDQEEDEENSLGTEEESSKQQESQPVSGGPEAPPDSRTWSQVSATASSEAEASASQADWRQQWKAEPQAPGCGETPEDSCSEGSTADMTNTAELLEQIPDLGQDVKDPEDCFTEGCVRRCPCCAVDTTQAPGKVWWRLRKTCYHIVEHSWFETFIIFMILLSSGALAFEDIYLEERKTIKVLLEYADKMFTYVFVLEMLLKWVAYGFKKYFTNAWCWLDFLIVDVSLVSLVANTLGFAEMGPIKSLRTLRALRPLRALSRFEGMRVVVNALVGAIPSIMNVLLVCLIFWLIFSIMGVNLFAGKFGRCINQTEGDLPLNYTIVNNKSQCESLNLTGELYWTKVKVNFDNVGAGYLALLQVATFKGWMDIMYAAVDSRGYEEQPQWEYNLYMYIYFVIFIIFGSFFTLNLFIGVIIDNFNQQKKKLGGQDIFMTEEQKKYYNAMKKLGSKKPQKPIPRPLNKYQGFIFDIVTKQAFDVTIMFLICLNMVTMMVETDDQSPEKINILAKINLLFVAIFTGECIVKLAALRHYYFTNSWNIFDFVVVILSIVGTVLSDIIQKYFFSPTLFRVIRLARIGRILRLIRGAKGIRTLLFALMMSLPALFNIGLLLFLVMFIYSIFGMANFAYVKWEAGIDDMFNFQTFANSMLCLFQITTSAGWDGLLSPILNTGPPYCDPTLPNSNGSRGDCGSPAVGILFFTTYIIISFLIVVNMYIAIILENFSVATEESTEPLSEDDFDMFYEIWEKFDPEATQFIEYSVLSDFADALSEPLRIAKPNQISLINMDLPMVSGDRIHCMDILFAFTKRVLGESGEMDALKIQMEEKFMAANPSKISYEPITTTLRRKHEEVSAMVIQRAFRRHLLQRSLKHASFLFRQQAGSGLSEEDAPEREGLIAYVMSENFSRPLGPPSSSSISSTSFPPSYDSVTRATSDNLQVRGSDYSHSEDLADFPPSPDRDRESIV
Description for in vivo: Ratio of AUC(0 to 72 hrs) in CD-1 mouse brain to plasma by LC-MS/MS analysis

As a reminder, the clearance is a measure of how efficiently the substance is removed, as volume per time. A word on the IC50: it is the point on the concentration scale where inhibition reaches its midpoint. Broadly, the bioavailability is dose-corrected exposure relative to a reference, in per cent. As usually defined, the logD is the decadic logarithm of the distribution of all forms, ionised or not, between an organic phase and buffer at a given pH. For orientation: EC50 means the concentration needed to bring the measured effect to its halfway point. As a reminder, the Kp is the ratio of the level in a tissue or fluid to that in plasma or blood. As to `C[C@H](CC[C@](C)(O)C(F)(F)F)[C@H]1CC[C@H]2[C@@H]3CC=C4C[C@@](C)(O)CC[C@]4(C)[C@H]3CC[C@]12C` [DALZANEMDOR], the results for the microsomal CLint at 10 µM in series [1] and in series [19] were 4.7 µL/min/mg and 11 µL/min/mg, respectively. The concentration at 1.5 h in series [2] is 577 ng/mL; in series [13], 1550 ng/mL. The clearance is 10 mL/min/kg in series [3] and 5 mL/min/kg in series [18]. Also, the IC50 in series [4] is > 30 µM; at Cytochrome P450 2D6 it was > 100 µM; in series [7] it was > 30 µM; against Cytochrome P450 3A4 it was > 100 µM; on Cytochrome P450 2C8, > 10 µM; in series [17], > 30 µM. Besides, the bioavailability in series [5] worked out at 28%; in series [15] it was 30%. Besides, the Activity is 27.1 Counts in the series with Mus musculus [6], 4.1 m in the series on Mus musculus [8], 6.9 m in the series with Mus musculus [11] and 6.1 Counts with Mus musculus [14]. In addition, the logD at 20 µM in series [9] came to 6.2. Also, the CLH turned out to be 6.7 mL/min/kg in series [10] and 18.3 mL/min/kg in [20]. The EC50 in [12] was 0.43 µM. The compound also showed a Kp in “in vivo” of 1.8. For the same compound, the fraction unbound at 0.25 h in series [16] is 0.022.
